According to patent US20200338144A1, “AGENT FOR PREVENTING OR TREATING SMALL INTESTINAL INJURY INDUCED BY NON-STEROIDAL ANTI-INFLAMMATORY DRUG AND PROTON PUMP INHIBITOR” (priority 2017, published 2020):

System: small intestinal injury induced by an NSAID and a PPI
Assay: Test 1: rate of change of hematocrit values in rats given an NSAID and a PPI
Format: in vivo, Wister male rats
Details: bacteria 1×10^9 cfu/animal oral once a day
Procedure: Frozen stocks of the following bacterial strains were statically cultured in GAM broth at 37° C. for 24 hours: the Bifidobacterium bifidum G9-1 strain (B. bifidum G9-1) (Accession No. NITE BP-817), the Bifidobacterium longum reference strain JCM 1217^T (B. longum JCM 1217) (purchased from Japan Collection of Microorganisms (JCM), RIKEN BioResource Research Center), the Bifidobacterium infantis reference strain JCM 1222^T (B. infantis JCM 1222) (purchased from JCM), the Bifidobacterium adolescentis reference strain JCM 1275^T (B. adolescentis JCM 1275) (purchased from JCM), and the Bifidobacterium dentium reference strain JCM 1195^T (B. dentium JCM 1195) (purchased from JCM). Each of the bacterial liquid cultures was inoculated into fresh GAM broth at a ratio (by volume) of liquid culture to GAM broth of 1:100, and statically cultured at 37° C. for 24 hours. […]
The centrifuged bacterial cells were suspended in 0.75 mL of physiological saline. […] The colonies appeared on the plates were counted, and the number of viable bacteria was calculated based on the dilution factor. […]
At the start of the experiments, the blood was collected from the tail vein with hematocrit capillary tubes (Thermo Fisher Scientific K.K.) to measure hematocrit values. […] After grouping, the body weight of the animals was measured for nine days, and one of the PPIs (10 mg/kg) was intraperitoneally administered twice a day. […]

Bifidobacterium longum was tested. Which “inhibitory effect on small intestinal injury (hematocrit reduction) induced by ibuprofen and lansoprazole” value (ibuprofen 10 mg/kg oral + lansoprazole 10 mg/kg i.p. twice a day, FIG. 7) did it give?
The value was “higher inhibitory effect”.

What about the “inhibitory effect on small intestinal injury (hematocrit reduction) induced by ibuprofen and omeprazole” value (ibuprofen 10 mg/kg oral + omeprazole 10 mg/kg i.p. twice a day, FIG. 4 (n=5)) of the same substance?
The value was “higher inhibitory effect”.
